Experimental data from patent publication US8178077B2, “Drug development target protein and target gene, and method of screening” (Reverse Proteomics Research Institute Co., Ltd., priority 2004, dated 2012).

Molecular target: T1, FLJ39196 clone-derived protein (human neurocalcin δ) (Homo sapiens, UniProt P61601)
T1 construct: A human full-length cDNA clone was expressed as a protein with an N-terminal His tag; His tag (N); made in house; host or cells: Escherichia coli BL21star(DE3)pLysS (pDEST17 Gateway expression plasmid)
Assay: SEC/MS interaction analysis (size exclusion spin column and mass analysis) with FLJ39196 clone-derived protein
Format: binding
From the text: To analyze the interactions between commonly used drugs and proteins expressed from human full-length cDNA clones while keeping both the proteins and the compounds in non-modified, non-immobilized state, size exclusion chromatography (SEC) and mass analysis were used in combination (FIGS. 1, 2). The specific procedures are shown below.
The compound-protein mixture prepared in step 1 was subjected to chromatography using an SEC column, the compound and the protein were separated by SEC, and the compound that interacted with the bound compound or protein contained in the protein fraction was analyzed using a mass analyzer.
Protein concentrations were measured using BCA Protein Assay (PIERCE), in consideration of the purity calculated by SDS-PAGE.
Mass analysis was performed using LCQ DECA XP (Thermoelectron) or Q-TOFmicro (Micromass), equipped with an ESI probe. The LC pump used was Agilent 1100 (Yokogawa Analytical Systems), and the autosampler used was HTC-PAL (CTC Analytics) equipped with a cooling stacker.
In the SEC method using 384-well spin columns, Unifilter 100 (Whatman), packed with 10 μL (dry volume) of Bio-Gel P6 (BIO-RAD) and swollen with milliQ water, was used as the SEC column. 13.3 μL of a protein-free reference standard or a 25 μM protein standard and 0.7 μL of a multiplied liquid comprising 25 μM of each pharmaceutical compound (5% DMSO aqueous solution) were mixed; 9 μL of this mixture was aliquoted into the SEC spin columns. The SEC spin column was mounted on an acetonitrile-aliquoted 384-well U-bottom plate and centrifuged; the SEC spin column filtrate, which is a protein fraction, was retrieved in 50% acetonitrile. The protein precipitate produced by the acetonitrile was removed via centrifugation and filtration for deproteinization; the resulting filtrate was concentrated by centrifugation and re-dissolved in 10 μL of 50% methanol to obtain a mass analysis sample. The mobile phase supplied to the mass analyzer was 0.1% formic acid/50% methanol solution in the positive ion mode, and 0.1% ammonia/50% methanol solution in the negative ion mode; these mobile phases were used at a flow rate of 40 μL/min. 2-μL of mass analysis samples were injected using an autosampler at 2-minute intervals; the mass spectral intensity of the compound was measured to obtain the spectral intensity of the pharmaceutical compound contained in the SEC spin column filtrate (protein fraction eluted from SEC).

[1] = protein 0 μM (protein-free reference), compound 1 μM
[2] = protein 0 μM (protein-free reference), compound 10 μM
[3] = protein 0 μM (protein-free reference), compound 100 μM
[4] = protein 0 μM (protein-free reference), compound 250 μM
[5] = protein 23.75 μM, compound 1 μM
[6] = protein 23.75 μM, compound 10 μM
[7] = protein 23.75 μM, compound 100 μM
[8] = protein 23.75 μM, compound 250 μM
[9] = protein 47.5 μM, compound 10 μM
[10] = protein 47.5 μM, compound 100 μM
[11] = protein 47.5 μM, compound 250 μM

Compound	spectral intensity of the compound in the SEC spin column filtrate (protein fraction) [1]	spectral intensity of the compound in the SEC spin column filtrate (protein fraction) [2]	spectral intensity of the compound in the SEC spin column filtrate (protein fraction) [3]	spectral intensity of the compound in the SEC spin column filtrate (protein fraction) [4]	spectral intensity of the compound in the SEC spin column filtrate (protein fraction) [5]	spectral intensity of the compound in the SEC spin column filtrate (protein fraction) [6]	spectral intensity of the compound in the SEC spin column filtrate (protein fraction) [7]	spectral intensity of the compound in the SEC spin column filtrate (protein fraction) [8]	spectral intensity of the compound in the SEC spin column filtrate (protein fraction) (protein 47.5 μM, compound 1 μM)	spectral intensity of the compound in the SEC spin column filtrate (protein fraction) [9]	spectral intensity of the compound in the SEC spin column filtrate (protein fraction) [10]	spectral intensity of the compound in the SEC spin column filtrate (protein fraction) [11]
CC(C)/N=c1\cc2n(-c3ccc(Cl)cc3)c3ccccc3nc-2cc1Nc1ccc(Cl)cc1 [clofazimine]	1592610	3306068	1781607	1742291	2041846	15886830	138678443	380425425	2399851	57730302	312686548	411373516
CCCCCCCCNC(C)C(O)c1ccc(SC(C)C)cc1 (stereo not drawn) [Suloctidil]	6080126	3684060	4969067	9177432	4318261	7828150	163940015	357100809	5977944	7209043	507388292	742015343
Clc1ccc(C(OCCN2CCCCC2)c2ccccc2)cc1 (stereo not drawn) [chloperastine]	2920008	13165487	276180260	803023959	2972794	9288224	218420294	773924506	4085344	18612563	338617522	1411536255
CCOC(=O)Oc1c(OC)cc(C(=O)O[C@@H]2C[C@@H]3CN4CCc5c([nH]c6cc(OC)ccc56)[C@H]4C[C@@H]3[C@H](C(=O)OC)[C@H]2OC)cc1OC [Syrosingopine]	38126829	47209784	41362697	38512184	63594361	101347281	465474678	596250311	70443152	105524442	897067633	1499127775
CN1CCC(=C2c3ccccc3Sc3ccccc32)CC1 [Pimethixene]	2913965	4868887	58800844	224525009	2449690	5737072	121577640	265475649	2762592	9271060	197624997	359356100

The remaining lines, values ahead:

spectral intensity of the compound in the SEC spin column filtrate (protein fraction) [1]	spectral intensity of the compound in the SEC spin column filtrate (protein fraction) [2]	spectral intensity of the compound in the SEC spin column filtrate (protein fraction) [3]	spectral intensity of the compound in the SEC spin column filtrate (protein fraction) [4]	spectral intensity of the compound in the SEC spin column filtrate (protein fraction) [5]	spectral intensity of the compound in the SEC spin column filtrate (protein fraction) [6]	spectral intensity of the compound in the SEC spin column filtrate (protein fraction) [7]	spectral intensity of the compound in the SEC spin column filtrate (protein fraction) [8]	spectral intensity of the compound in the SEC spin column filtrate (protein fraction) (protein 47.5 μM, compound 1 μM)	spectral intensity of the compound in the SEC spin column filtrate (protein fraction) [9]	spectral intensity of the compound in the SEC spin column filtrate (protein fraction) [10]	spectral intensity of the compound in the SEC spin column filtrate (protein fraction) [11]	Compound
12908294	15368592	30558420	80321853	21615977	31548696	104338961	243359670	25013147	52145413	207034486	433637183	CN(C)CC/C=C1/c2ccccc2Sc2ccc(Cl)cc21 [Chlorprothixene]
15652447	95722839	530918568	1025547751	10946604	88615018	727082711	1272226745	10185140	49245292	427303459	1448860391	Cc1cc(-c2ccccc2)nnc1NCCN1CCOCC1 [Minaprine]
231212	300847	378850	461737	357666	1258120	10722991	19795682	412022	1942184	29076230	43413619	CCc1oc2ccccc2c1C(=O)c1cc(Br)c(O)c(Br)c1 [Benzbromarone]
271261	505597	1323031	1475428	361168	1095223	9348303	25333199	249695	1261413	16067473	28434802	NS(=O)(=O)c1cc2c(cc1Cl)N=C(CSCc1ccccc1)NS2(=O)=O [Benzthiazide]
